Assay [1] relates to androgen receptor (AR). The assay can be described thus: AR fluorescent reporter degradation. Type of assay: cell-based, human. Conditions: n = 3; for AR reporter degradation, significance: CI-4AS-1 5, 10, 20 uM. The method, then:
AR reporters with substitutions to the critical set of residues in the hydrophobic cleft (AR V713, V716, V730, and M734) were generated to match those found in RARA, RXRA, or GR. The wild-type AR reporter was not degraded following treatment with the synthetic AR agonist CI-4AS-1. […] Taken together, the data underscore the essentiality of the NR hydrophobic cleft for UBR5 binding and NR degradation.
Cells were analyzed for GFP vs mCherry expression.

In assay [2] the test system is AR^RARA mutant and UBR5. The assay can be described thus: Co-immunoprecipitation of UBR5 with AR-RARA mutants. It counts as cell-based, human. The conditions noted are these: ± CI-4AS-1 and MG132. The source says:
(§1) Blotting was done as described above.

Assay [3] relates to GR and UBR5. The assay can be described thus: UBR5/GR interaction in cells (BRET). The conditions noted are these: ± dexamethasone, n = 3. Type of assay: cell-based, human. For orientation: Bioluminescence resonance energy transfer reports proximity on the nanometre scale.
Excerpt: Bioluminescence resonance energy transfer (BRET) experiments were done using the NanoBRET PPI kit (Promega, N1821) according to manufacturer’s instructions.
Assay [4] relates to GR. The assay can be described thus: GR degradation (western blot A549; GFP-GR reporter). Type of assay: cell-based, human. On the procedure:
Reporter cell lines were seeded in triplicate at a density of 1 million cells/ml in 100 μl per well in a 96 well plate and measured once. Ligand was added by Digital Dispenser (Tecan), and incubated at 37°C for the appropriate time before reading by flow cytometry. Cells were analyzed for GFP vs mCherry expression. GFP expression was normalized to mCherry signal and ligand treatments were compared to DMSO controls.
Membranes were blocked for 30 minutes to 1 hour at room temperature in Odyssey Blocking Buffer/PBS (LI-COR Biosciences), and incubated with primary antibodies at 4 °C overnight. Stained membranes were washed three times in Tris-buffered saline with Tween 20 (TBS-T) and incubated for 1 hour at room temperature with secondary IRDye-conjugated antibodies (LI-COR Biosciences). Membranes were washed three times in TBS-T before imaging (Odyssey Imaging System, LI-COR Biosciences).
Background: Immunoblotting shows a protein as a band on a membrane.

The test system of assay [5] is GR with NCOA2 and UBR5. The assay can be described thus: Co-immunoprecipitation time course for GR. Type of assay: cell-based, human. Conditions: U937 GFP-GR, 0, 6, 12, 16, 24 h dexamethasone. On the procedure:
We performed time course co-immunoprecipitation experiments for GR and blotted for NCOA2, GR, and UBR5 at 0, 6, 12, 16, and 24 h following dexamethasone treatment. […] Unlike RARA, which binds constitutively to chromatin, GR is sequestered in the cytoplasm and rapidly translocates to the nucleus following agonist binding.[44],[45]
as §1

Assay [6] has as its system GR and UBR5 on chromatin in A549 cells. The assay can be described thus: ChIP-seq of GR and UBR5 in A549 cells. Type of assay: cell-based, human. The method, then: Cell lines were expanded (up to 50 million), treated with ligand, and incubated at 37 °C. Cells were pelleted by centrifugation for 5 minutes, washed twice with cold PBS, and resuspended, in 5 ml of room temperature PBS. 20 μl of 0.5M Disuccinimidyl glutarate (DSG) (ThermoFisher), was added and incubated for 30 minutes at room temperature. Cells were pelleted by centrifugation and resuspended in 8.325 ml of PBS and 8.325 ml of 2% formaldehyde and incubated for 30 minutes at room temperature. Cross-linking was quenched by the addition of 1665 μl of 1 M Tris-HCl pH 8.0 and 832.5 μl of 2.5 M glycine. Cells were pelleted and washed twice with PBS. Cross-linked cells were resuspended in LB1 Buffer (50mM HEPES-KOH, pH7.5, 140mM NaCl, 1mM EDTA, 10% Glycerol, 0.5% NP-40, 0.25% Triton X-100 in distilled water) and rotated for 10 minutes at 4C. Cells were pelleted and resuspended in LB2 (10mM Tris-HCl, pH 8.0, 200mM NaCl, 1mM EDTA, 0.5mM EGTA in distilled water) and rotated for 10 minutes at 4C. Cells were pelleted and resuspended in LB3 (10mM Tris-HCL, pH 8.0, 100mM NaCl, 1mM EDTA, 0.5mM EGTA, 0.1% Na-deoxycholate, 0.5% Na-Lauroylsarcosine, 1% Triton X-100, in distilled water) sonicated (Covaris, E220). […] Fragment length and concentrations were assessed using TapeStation (Agilent) and Qubit (ThermoFisher), and libraries were sequenced on an Illumina NextSeq 550 sequencer. […]

Assay [7] relates to dexamethasone-regulated gene expression in A549 cells. The assay can be described thus: RNA sequencing of A549 cells. It counts as cell-based, human. The conditions noted are these: A549, 0, 24, 48 h. The method, then: Cell lines were expanded, treated with ligand, and incubated at 37C. Cells were pelleted by centrifugation for 5 minutes, washed with cold PBS, and RNA was isolated by RNeasy kit (Qiagen) per manufacturer’s instructions. RNA was sent to Novogene for library preparation and sequencing, or prepared for sequencing (NEBNext, New England Biolabs) and sequenced on an Illumina NextSeq 550 sequencer.
Paired-end reads were aligned to the hg38.p13[81],[82] reference genome with the STAR[83] (v5.2.7b) aligner as part of the RSEM[99] command line tool. Gene transcript abundance was further quantified from aligned fragments using RSEM to generate a gene-by-sample matrix of expected counts. Differential expression was tested, as with the ChIP-seq data, using the DESeq[88],[93]2 and ashr[94] pipeline, this time calculating sample-specific scale factor offset using the method of median-ratio as implemented in the R package EBSeq[100] (v1.36.0). For plotting in heatmaps, genes were selected based on ChIP-seq peak annotation and subset.

Assay [8] concerns UBR5-ER. The assay can be described thus: In vitro FLAG-UBR5 pull-down of His-tagged ER. It counts as binding, human. Conditions: 50 μM ER ligand. The method, then: 12 μL of FLAG M2 slurry were equilibrated with binding buffer (25 mM HEPES pH 7.4, 125 mM NaCl, 0.05% TWEEN-20). The resin was pelleted and excess buffer removed. 60 μL of fresh binding buffer was re-added, followed by addition of 15 pmol (2.5 μL ofa6 μM solution) of purified FLAG-UBR5 protein and incubated on a rotating wheel at 4°C for 60–90 minutes. The resin was pelleted, excess buffer removed, and 150 μL fresh binding buffer (supplemented with 50 μM ligand of interest or DMSO) added, followed by 150 pmol protein (binding partner protein of interest) and incubated for another 60 minutes. The resin was pelleted, excess buffer removed and washed with 400 μL of binding buffer (supplemented with ligand of interest or DMSO), and this process was repeated three times. The resin was pelleted, excess buffer removed and 45 μL of binding buffer supplemented with 1 mg/mL 3xFLAG peptide was added to elute proteins over 30 minutes on a rotating wheel at room temperature. The resin was pelleted, and 40 μL of the supernatant was collected and mixed with 12 μL of 5xSDS gel loading buffer. 6 μL of these samples were applied to SDS-PAGE on a 4–20% gradient gel (Biorad). The gel was transferred to a nitrocellulose membrane using the Trans-Blot Turbo Transfer System (Biorad). […]

The test system of assay [9] is androgen receptor (AR). Conditions: testosterone, ref [48]-[50]; cited from earlier work. The source says: Instead, it is shuttled […] the nucleus following agonist binding and transcriptional activation.[48]–[50] The hydrophobic cleft of AR has several amino acid differences from other NRs, which preferentially accommodate bulkier FxxLF motifs instead of the classic LxxLL.[51],[52] We hypothesized that these sequence differences might also prevent UBR5-mediated degradation and asked whether altering the hydrophobic cleft in AR could c ...

`CN1C(=O)C=C[C@]2(C)[C@H]3CC[C@]4(C)[C@@H](C(=O)Nc5ccccc5Cl)CC[C@H]4[C@@H]3CC[C@@H]12` [CI-4AS-1]: the “AR reporter degradation, significance” value is reported as “**** (**** p<0.00005)” in assay [1] (AR V713F V730L M734V (RXR matched)), “** (**p<0.005)” in assay [1] (AR V713I V730I M734I (RARA matched)) and “**** (**** p<0.00005)” in assay [1] (AR V713I V730L (GR matched)). The “degradation of mutant AR reporters” value in [1] (hydrophobic cleft matched to RARA, RXRA or GR) is “efficiently degraded”. Besides, in assay [1] (wild-type AR), the “degradation of wild-type AR reporter” value is recorded as “not degraded”. Also, the “UBR5 binding to AR^RARA mutants” value in [2] is given as “strengthened binding in the presence of agonist”.

`C[C@@H]1C[C@H]2[C@@H]3CCC4=CC(=O)C=C[C@]4(C)[C@@]3(F)[C@@H](O)C[C@]2(C)[C@@]1(O)C(=O)CO` [dexamethasone]: the “UBR5 binding to GR in cells” value in assay [3] was “promoted binding of UBR5 to GR in cells”. In addition, the “effect of UBR5 shRNAs on GR degradation” value in assay [4] (A549 western blot and reporter) is “rescued GR degradation”. Besides, in assay [4] (GFP-GR mutants, likewise mutation of the UBR5 HECT domain), the “GR reporter degradation with predicted degron (cleft) mutations” value was “impaired dexamethasone-induced GR degradation”. The “sequential binding of NCOA2 and UBR5 to GR” value in [5] is “GR sequentially bound NCOA2 and then UBR5”. Also, the “GR ChIP-seq peaks” value in [6] (A549, 15 min and 24 h dexamethasone) is “strikingly gained 15 min after addition of dexamethasone and subsequently decreased following sustained (24 h) dexamethasone treatment”. Also, in [6] (A549, 15 min dexamethasone), the “UBR5 ChIP-seq peaks” value was “strongly increased after 15 min of dexamethasone treatment”. In assay [7], the “effect of UBR5 knockdown on dexamethasone-regulated gene expression” value is listed as “alter dexamethasone-regulated gene expression”.

Regarding `C[C@]12CC[C@@H]3c4ccc(O)cc4CC[C@H]3[C@@H]1CC[C@@H]2O` [estradiol, beta-Estradiol], the UBR5-ER interaction entry in assay [8] is on record as “induced by estradiol”.

Turning to `C[C@]12CC[C@H]3[C@@H](CCC4=CC(=O)CC[C@@]43C)[C@@H]1CC[C@@H]2O` [testosterone], the “AR stability / ligand-induced degradation” value in assay [9] was “stabilized by its endogenous ligand testosterone and does not undergo ligand-induced degradation”.

(Values after paper PMC11134608, “UBR5 forms ligand-dependent complexes on chromatin to regulate nuclear hormone receptor stability” (Molecular cell, 2023).)
